For data set [1], the target named is CYP1A2 (Homo sapiens, UniProt P05177).
Data set [2] relates to BSEP. Set-up: method as in PMID 23877105. The settings on record: SCHs; cited from earlier work.
Data set [3] has as its system icHep. The settings on record: for intracellular amount on DFP treatment: not told.
The subject of data set [4] is BSEP.
Data set [5] has as its system sandwich-cultured PXB-cells. The conditions noted are these: human, 1 μM.
The target in data set [6] is P-gp (Homo sapiens, UniProt P08183). The conditions noted are these: two donors (HUM181001B), 1 μCi/ml, 120 min.
P-gp, sequence (P08183 whole entry): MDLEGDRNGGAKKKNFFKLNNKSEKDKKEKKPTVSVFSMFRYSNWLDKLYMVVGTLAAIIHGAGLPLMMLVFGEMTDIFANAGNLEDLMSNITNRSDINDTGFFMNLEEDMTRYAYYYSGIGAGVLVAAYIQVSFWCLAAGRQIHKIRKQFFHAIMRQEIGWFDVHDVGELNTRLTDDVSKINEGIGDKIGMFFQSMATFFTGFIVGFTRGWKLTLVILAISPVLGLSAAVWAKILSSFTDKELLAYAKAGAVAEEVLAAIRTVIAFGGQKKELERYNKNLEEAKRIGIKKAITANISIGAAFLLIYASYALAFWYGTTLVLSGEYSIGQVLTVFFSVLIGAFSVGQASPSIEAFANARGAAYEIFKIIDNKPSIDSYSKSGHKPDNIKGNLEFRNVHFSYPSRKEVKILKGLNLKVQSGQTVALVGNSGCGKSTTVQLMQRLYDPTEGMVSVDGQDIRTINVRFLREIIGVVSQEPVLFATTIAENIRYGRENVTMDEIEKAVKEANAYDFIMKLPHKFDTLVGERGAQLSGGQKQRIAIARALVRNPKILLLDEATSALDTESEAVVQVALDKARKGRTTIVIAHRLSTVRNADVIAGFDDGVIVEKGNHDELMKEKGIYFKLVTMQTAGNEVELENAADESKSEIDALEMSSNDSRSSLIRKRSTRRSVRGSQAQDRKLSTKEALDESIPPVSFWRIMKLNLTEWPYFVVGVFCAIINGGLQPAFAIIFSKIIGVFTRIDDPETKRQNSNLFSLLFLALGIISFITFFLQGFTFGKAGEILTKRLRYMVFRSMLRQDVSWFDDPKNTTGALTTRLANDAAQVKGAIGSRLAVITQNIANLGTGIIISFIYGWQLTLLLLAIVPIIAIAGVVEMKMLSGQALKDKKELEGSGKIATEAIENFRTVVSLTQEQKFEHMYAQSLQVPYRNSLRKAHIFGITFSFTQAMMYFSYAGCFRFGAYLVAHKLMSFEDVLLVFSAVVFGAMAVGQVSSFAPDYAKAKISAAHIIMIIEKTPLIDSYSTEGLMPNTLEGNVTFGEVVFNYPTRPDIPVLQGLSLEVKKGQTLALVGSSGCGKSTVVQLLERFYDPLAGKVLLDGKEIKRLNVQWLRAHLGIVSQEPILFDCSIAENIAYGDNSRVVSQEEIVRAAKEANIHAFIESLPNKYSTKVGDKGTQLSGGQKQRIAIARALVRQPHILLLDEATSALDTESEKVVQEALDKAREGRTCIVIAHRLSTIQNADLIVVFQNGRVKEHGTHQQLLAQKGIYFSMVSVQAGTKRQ
Protocol: The cells were incubated in a 37°C water bath, and 200 μl of TB was collected from the lower chamber (bile side) at 30, 60, 90, and 120 min. An equal amount of TB was immediately added after every sampling point. […] The apparent permeability coefficient Papp (cm/s) was estimated using Eq. (2). Here, Q, A, and C0 indicate the recovered amount of the compound on the bile side, the surface area of the insert membrane (0.3 cm^2), and the initial concentration of the substrate, respectively.2 Papp=dQ/dt/(A×C0)
Data set [7] in a line: Reported human in vivo biliary excretion clearance and intrinsic clearance estimated from it (Eq. 4).
Data set [8] has as its target T1, OATP1B1 (Homo sapiens, UniProt Q9Y6L6).
T1 sequence (Q9Y6L6 1-691): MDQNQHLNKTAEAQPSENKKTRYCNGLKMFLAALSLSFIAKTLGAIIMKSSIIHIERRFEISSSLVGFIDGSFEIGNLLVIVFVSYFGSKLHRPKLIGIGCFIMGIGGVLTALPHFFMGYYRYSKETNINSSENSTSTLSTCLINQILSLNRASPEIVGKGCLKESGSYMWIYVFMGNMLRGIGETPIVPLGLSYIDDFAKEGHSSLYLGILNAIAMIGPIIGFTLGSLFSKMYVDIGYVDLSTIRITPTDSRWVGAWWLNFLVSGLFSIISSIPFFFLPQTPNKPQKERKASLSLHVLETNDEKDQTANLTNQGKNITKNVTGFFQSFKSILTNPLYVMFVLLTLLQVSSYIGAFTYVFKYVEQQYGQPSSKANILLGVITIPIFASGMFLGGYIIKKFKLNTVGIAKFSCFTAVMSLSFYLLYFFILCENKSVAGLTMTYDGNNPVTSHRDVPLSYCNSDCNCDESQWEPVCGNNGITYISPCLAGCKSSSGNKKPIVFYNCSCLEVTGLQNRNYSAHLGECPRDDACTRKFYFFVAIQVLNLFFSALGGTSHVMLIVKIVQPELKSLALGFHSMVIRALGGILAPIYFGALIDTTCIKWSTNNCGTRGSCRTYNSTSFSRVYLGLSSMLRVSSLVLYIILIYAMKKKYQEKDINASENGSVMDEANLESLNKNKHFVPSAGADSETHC

Data set [9] concerns the target T2, MRP2 (Homo sapiens, UniProt Q92887). The settings on record: not told.
Data set [10] is described as follows: icHep permeation assay (sinusoidal to bile side) to estimate drug biliary excretion clearance. The conditions noted are these: human.
The conditions of data set [11]: cited from earlier work; for Rb: blood/plasma concentration ratio.
For data set [12] the following is noted: cited from earlier work.
For data set [13] the following is noted: human, cited from earlier work.
The nature of data set [14]: in vitro. The conditions noted are these: human, Biliary excretion clearance, observed, CLbile, int.
For data set [15], the target named is T2, MRP2. The data set is described as follows: MRP2-mediated biliary transport of CDF (CDFDA permeation assay). The settings on record: benzbromarone 100 μM, icHep.
The test system of data set [16] is BSEP. The settings on record: cited from earlier work.
Where [17] appears, read: estimated from observed CLbile with fp, Rb, Qh 1400 ml/min.
Setting [18] is: estimated from observed in vivo CLbile with fp, Rb and Qh 1400 ml/min.
[19] abbreviates: Biliary excretion clearance, in vitro, observed, CLbile, int, icHep (HUM181001B), CLbile,app of icHep minus control cells.
[20] abbreviates: unbound fraction of the plasma protein.
Where [21] appears, read: unbound fraction, reported value.
The mark [22] stands for this setting: reported in vivo biliary excretion clearance.

The IC50 is the concentration that inhibits the measured activity by half.

Where a name gives a salt, the structure may show the parent alone. Read-outs that look alike come from different tables or passages of the source.

T2 sequence (Q92887 whole entry): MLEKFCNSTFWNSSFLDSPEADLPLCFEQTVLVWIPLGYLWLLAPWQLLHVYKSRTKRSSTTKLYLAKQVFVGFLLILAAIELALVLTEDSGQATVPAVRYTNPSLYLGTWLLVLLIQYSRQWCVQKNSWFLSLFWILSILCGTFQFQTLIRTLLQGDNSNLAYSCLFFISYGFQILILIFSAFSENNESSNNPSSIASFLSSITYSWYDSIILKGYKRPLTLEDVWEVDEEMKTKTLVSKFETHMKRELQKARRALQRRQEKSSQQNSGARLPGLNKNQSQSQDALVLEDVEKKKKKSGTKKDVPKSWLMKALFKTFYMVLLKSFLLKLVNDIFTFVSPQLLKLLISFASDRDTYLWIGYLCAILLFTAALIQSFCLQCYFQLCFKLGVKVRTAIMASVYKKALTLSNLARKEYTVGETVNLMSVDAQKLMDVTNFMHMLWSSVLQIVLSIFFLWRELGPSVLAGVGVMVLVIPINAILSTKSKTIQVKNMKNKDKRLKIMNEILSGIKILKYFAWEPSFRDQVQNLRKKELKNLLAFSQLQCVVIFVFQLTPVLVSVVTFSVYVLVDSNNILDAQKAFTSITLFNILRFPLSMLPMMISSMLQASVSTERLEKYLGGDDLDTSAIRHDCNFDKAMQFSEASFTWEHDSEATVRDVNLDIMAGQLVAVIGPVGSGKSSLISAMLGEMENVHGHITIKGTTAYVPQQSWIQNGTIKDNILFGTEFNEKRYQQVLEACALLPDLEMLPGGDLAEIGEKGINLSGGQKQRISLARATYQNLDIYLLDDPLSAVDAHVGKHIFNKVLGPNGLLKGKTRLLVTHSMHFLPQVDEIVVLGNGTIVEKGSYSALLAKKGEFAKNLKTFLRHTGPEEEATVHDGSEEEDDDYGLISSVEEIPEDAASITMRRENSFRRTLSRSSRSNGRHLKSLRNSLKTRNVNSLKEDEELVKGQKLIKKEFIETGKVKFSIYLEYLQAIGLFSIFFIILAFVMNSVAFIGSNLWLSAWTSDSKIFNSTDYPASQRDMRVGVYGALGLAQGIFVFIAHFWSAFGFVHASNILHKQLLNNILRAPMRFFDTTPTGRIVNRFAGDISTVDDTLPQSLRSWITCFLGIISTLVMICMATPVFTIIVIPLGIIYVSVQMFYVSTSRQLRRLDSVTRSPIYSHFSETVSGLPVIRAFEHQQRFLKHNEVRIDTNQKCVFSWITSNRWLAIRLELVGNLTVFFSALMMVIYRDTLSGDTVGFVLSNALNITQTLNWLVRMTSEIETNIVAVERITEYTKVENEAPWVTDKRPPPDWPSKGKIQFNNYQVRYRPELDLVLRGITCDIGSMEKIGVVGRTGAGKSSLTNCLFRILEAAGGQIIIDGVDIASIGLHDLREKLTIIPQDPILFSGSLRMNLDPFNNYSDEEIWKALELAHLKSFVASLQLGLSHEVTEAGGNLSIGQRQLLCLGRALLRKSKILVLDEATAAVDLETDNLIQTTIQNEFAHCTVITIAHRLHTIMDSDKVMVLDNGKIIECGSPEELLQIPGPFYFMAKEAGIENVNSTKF
CYP1A2, sequence (P05177 whole entry): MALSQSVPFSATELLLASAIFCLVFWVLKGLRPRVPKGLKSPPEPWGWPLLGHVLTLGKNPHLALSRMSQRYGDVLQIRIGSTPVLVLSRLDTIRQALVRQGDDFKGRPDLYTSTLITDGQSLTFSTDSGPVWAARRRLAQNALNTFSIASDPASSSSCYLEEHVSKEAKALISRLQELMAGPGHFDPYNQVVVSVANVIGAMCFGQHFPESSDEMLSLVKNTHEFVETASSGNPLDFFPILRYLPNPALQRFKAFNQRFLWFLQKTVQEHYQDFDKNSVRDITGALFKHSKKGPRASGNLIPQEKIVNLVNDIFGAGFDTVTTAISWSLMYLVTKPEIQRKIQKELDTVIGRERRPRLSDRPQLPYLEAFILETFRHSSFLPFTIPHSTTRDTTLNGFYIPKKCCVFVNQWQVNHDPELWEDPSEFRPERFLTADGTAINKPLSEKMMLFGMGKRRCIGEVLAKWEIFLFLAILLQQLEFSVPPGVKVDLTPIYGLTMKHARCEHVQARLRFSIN

In the case of `CC(=O)Nc1ccc(O)cc1` [Acetaminophen], the “Enzyme activity, Mean” value in [1] was found to be 0.950 pmol/min/106 cells.

With `CCOc1nc2cccc(C(=O)O)c2n1Cc1ccc(-c2ccccc2-c2nnn[nH]2)cc1` [CAN, candesartan], the BSEP inhibition entry in data set [2] was “not”. Besides, in data set [3], the “intracellular amount on DFP treatment” value is “decreased”.

For `CCOc1nc2cccc(C(=O)OC(C)OC(=O)OC3CCCCC3)c2n1Cc1ccc(-c2ccccc2-c2nnn[nH]2)cc1` (centres unmarked) [CIL, candesartan cilexetil], the “effect on biliary excretion clearance of taurocholate” value in [4] is “decreased”. Moreover, the “effect on biliary excretion clearance of BSEP substrate taurocholate” value in data set [4] (CIL (10 μM) alone, taurocholate 1 μM, 120 min) is recorded as “did not affect”. Besides, the BSEP inhibition entry in data set [2] is on record as “inhibited”. In data set [3], the “effect on intracellular accumulation of taurocholate” value is listed as “increased” and the “intracellular amount on DFP treatment” value was “increased”.

Consider `C[C@H]1O[C@@H](O[C@H]2[C@@H](O)C[C@H](O[C@H]3[C@@H](O)C[C@H](O[C@H]4CC[C@@]5(C)[C@H](CC[C@@H]6[C@@H]5C[C@@H](O)[C@]5(C)[C@@H](C7=CC(=O)OC7)CC[C@]65O)C4)O[C@@H]3C)O[C@@H]2C)C[C@H](O)[C@@H]1O` [Digoxin, digoxin], for which the “BEI (%) Mean” value in data set [5] (2 min) amounted to 21.9%; in data set [5] (5 min), 28.3%; in data set [5] (10 min) it was 44.9%; in [5] (20 min) it was 37.1%. For the same molecule, the “Predicted in vivo CLbile, int, Mean” value is 703 mL/min in [5] (2 min), 410 mL/min in data set [5] (5 min), 439 mL/min in data set [5] (10 min) and 152 mL/min in [5] (20 min). For the same molecule, in data set [6], the “permeability to the bile side in icHep compared to the control” value is “significantly increased”. Moreover, the “Observed in vivo CLbile, int” value in data set [7] (setting [17]) and in data set [7] (setting [18]) was 154 mL/min in each case.

In the case of `C[C@]12CC[C@@H]3c4ccc(O)cc4CC[C@H]3[C@@H]1CC[C@@H]2O[C@@H]1O[C@H](C(=O)O)[C@@H](O)[C@H](O)[C@H]1O` [E217βG], the “difference in OATP1B1 substrate uptake clearance between two donors” value in data set [8] is recorded as 2.85 fold. For the same molecule, the “permeability to the bile side in icHep compared to the control” value in data set [9] is recorded as “significantly increased”.

`CN(Cc1cnc2nc(N)nc(N)c2n1)c1ccc(C(=O)N[C@@H](CCC(=O)O)C(=O)O)cc1` [Methotrexate, methotrexate]: the values for the hepatocyte CLint at 1 μM in data set [10] and in data set [10] (setting [19]) were 1.11 ± 0.217 µL/min/1e6 cells and 0.73 ± 0.268 µL/min/1e6 cells, respectively. Also, the Rb in data set [11] (reported value) and in data set [11] was 0.79 in each case. In addition, the “Predicted in vivo CLbile, int, Mean” value in data set [5] (2 min) is 700 mL/min; in [5] (5 min) it was 179 mL/min; in data set [5] (10 min), 126 mL/min; in data set [5] (20 min) it was 172 mL/min. Besides, the “BEI (%) Mean” value stood at 14.8% in [5] (5 min) and 18.9% in data set [5] (10 min). In data set [12] (reported value), the “fp, unbound fraction of the plasma protein” value (“fp, unbound fraction” for short) was 0.46[40]. In addition, the fp in data set [12] (setting [20]) and in data set [12] (setting [21]) was 0.46 in each case. Besides, the “Observed in vivo CLbile” value in data set [13] (setting [22]) and in data set [13] (reported value) was 39.9 mL/min throughout. For the same molecule, the “Observed in vivo CLbile, int” value in data set [7] (setting [17]) and in [7] (setting [18]) was 90.0 mL/min throughout.

With `CCOc1ccc2ccccc2c1C(=O)N[C@@H]1C(=O)N2[C@@H]1SC(C)(C)[C@@H]2C(=O)O` [Nafcillin, nafcillin], the hepatocyte CLint at 1 μM in data set [10] (setting [19]) was 1.07 ± 0.14 µL/min/1e6 cells; in data set [14], 2.22 ± 1.01 µL/min/1e6 cells. Moreover, the Rb in data set [11] (reported value) and in [11] was 0.55 each time. Further, in data set [11] (reported value), the “Rb, blood/plasma concentration ratio” value is 0.55[43]. Further, the “BEI (%) Mean” value is recorded as 57.4% in data set [5] (2 min), 42.7% in [5] (5 min), 40.6% in [5] (10 min) and 70.9% in data set [5] (20 min). In addition, the “Predicted in vivo CLbile, int, Mean” value in [5] (2 min) was 3401 mL/min; in data set [5] (5 min) it was 1026 mL/min; in data set [5] (10 min), 340 mL/min; in data set [5] (20 min), 608 mL/min. Also, the “fp, unbound fraction” value in [12] (reported value) is 0.123[43]. Besides, the fp in data set [12] (setting [20]) and in [12] (setting [21]) was 0.123 each time. The “Observed in vivo CLbile” value in [13] (setting [22]) and in data set [13] (reported value) was 125 mL/min each time. Also, the “Observed in vivo CLbile, int” value in data set [7] (setting [17]) and in data set [7] (setting [18]) was 1213 mL/min in each case.

`CC[C@]1(O)C[C@H]2CN(CCc3c([nH]c4ccccc34)[C@@](C(=O)OC)(c3cc4c(cc3OC)N(C=O)[C@H]3[C@@](O)(C(=O)OC)[C@H](OC(C)=O)[C@]5(CC)C=CCN6CC[C@]43[C@@H]65)C2)C1` [Vincristine, vincristine]: the values for the hepatocyte CLint at 1 μM in data set [10] and in data set [10] (setting [19]) were 0.173 ± 0.052 µL/min/1e6 cells and 0.128 ± 0.0438 µL/min/1e6 cells, respectively. Further, the Rb in [11] (reported value) and in data set [11] was 1.2 each time. For the same molecule, the “BEI (%) Mean” value in data set [5] (2 min) amounted to 11.7%; in data set [5] (5 min), 16.5%; in [5] (10 min) it was 26.3%; in [5] (20 min) it was 40.4%. Further, the “Predicted in vivo CLbile, int, Mean” value in data set [5] (2 min) is 329 mL/min; in data set [5] (5 min), 199 mL/min; in data set [5] (10 min), 190 mL/min; in data set [5] (20 min), 168 mL/min. Also, the “fp, unbound fraction” value in [12] (reported value) is 0.51[47]. Besides, the fp in [12] (setting [20]) and in [12] (setting [21]) was 0.51 each time. The “Observed in vivo CLbile” value in data set [13] (setting [22]) and in data set [13] (reported value) was 12.9 mL/min throughout. The “Observed in vivo CLbile, int” value in [7] (setting [17]) and in data set [7] (setting [18]) was 25.5 mL/min each time.

Consider `CCc1oc2ccccc2c1C(=O)c1cc(Br)c(O)c(Br)c1` [benzbromarone], for which, in data set [15], the “effect of MRP2 inhibitor on the increased appearance of CDF on the bile side” value is “reduced this increase to the same level as the control group”.

On to `Cc1c(C)c2c(c(C)c1OS(=O)(=O)O)CCC(C)(COc1ccc(CC3SC(=O)NC3=O)cc1)O2` (centres unmarked) [troglitazone sulfate], for which the IC50 in data set [16] is 4.2 µM.

For the molecule `Cc1c(C)c2c(c(C)c1O)CCC(C)(COc1ccc(CC3SC(=O)NC3=O)cc1)O2` (centres unmarked) [troglitazone], the IC50 in data set [16] was 2.3 µM.

These data come from PMC10444810, “Induction of open-form bile canaliculus formation by hepatocytes for evaluation of biliary drug excretion” (Communications Biology, 2023).
